In brackets after ≈: the same amount, converted by molar mass. Activity calls are given as the source filed them. The rule behind the calls is not given here.
How the values were obtained:
[1] = system: Micrococcus luteus; test: Antibacterial activity against Micrococcus luteus after 24 hr by disk diffusion method; format: functional
[2] = system: Monascus purpureus; test: Antifungal activity against Monascus purpureus after 18 hr by serial dilution method; format: functional
[3] = system: Escherichia coli; test: Antibacterial activity against Escherichia coli after 18 hr by serial dilution method; format: functional
[4] = system: Bacillus subtilis; test: Antibacterial activity against Bacillus subtilis after 24 hr by disk diffusion method; format: functional
[5] = system: Salmonella paratyphi; test: Antibacterial activity against Salmonella enterica subsp. enterica serovar Paratyphi A after 18 hr by serial dilution method; format: functional
[6] = system: Bacillus subtilis; test: Antibacterial activity against Bacillus subtilis after 18 hr by serial dilution method; format: functional
[7] = system: Salmonella paratyphi; test: Antibacterial activity against Salmonella enterica subsp. enterica serovar Paratyphi A after 24 hr by disk diffusion method; format: functional
[8] = system: Aspergillus niger; test: Antifungal activity against Aspergillus niger after 18 hr by serial dilution method; format: functional
[9] = system: Aspergillus niger; test: Antifungal activity against Aspergillus niger after 24 hr by disc diffusion method; format: functional
[10] = system: Vibrio cholerae; test: Antibacterial activity against Vibrio cholerae after 24 hr by disk diffusion method; format: functional
[11] = system: Escherichia coli; test: Antibacterial activity against Escherichia coli after 24 hr by disc diffusion method; format: functional
[12] = system: Micrococcus luteus; test: Antibacterial activity against Micrococcus luteus after 18 hr by serial dilution method; format: functional
[13] = system: Trichophyton rubrum; test: Antifungal activity against Trichophyton rubrum after 24 hr by disk diffusion method; format: functional
[14] = system: Vibrio cholerae; test: Antibacterial activity against Vibrio cholerae after 18 hr by serial dilution method; format: functional
[15] = system: Pseudomonas aeruginosa; test: Antibacterial activity against Pseudomonas aeruginosa after 18 hr by serial dilution method; format: functional
[16] = system: Staphylococcus aureus; test: Antibacterial activity against Staphylococcus aureus after 18 hr by serial dilution method; format: functional
[17] = system: Staphylococcus epidermidis; test: Antibacterial activity against Staphylococcus albus after 24 hr by disk diffusion method; format: functional
[18] = system: Candida albicans; test: Antifungal activity against Candida albicans after 18 hr by serial dilution method; format: functional
[19] = system: Candida albicans; test: Antifungal activity against Candida albicans after 24 hr by disk diffusion method; format: functional
[20] = system: Staphylococcus epidermidis; test: Antibacterial activity against Staphylococcus albus after 18 hr by serial dilution method; format: functional
[21] = system: Staphylococcus aureus; test: Antibacterial activity against Staphylococcus aureus after 24 hr by disk diffusion method; format: functional
[22] = system: Pseudomonas aeruginosa; test: Antibacterial activity against Pseudomonas aeruginosa after 24 hr by disc diffusion method; format: functional
[23] = system: Trichophyton rubrum; test: Antifungal activity against Trichophyton rubrum after 18 hr by serial dilution method; format: functional
[24] = system: Monascus purpureus; test: Antifungal activity against Monascus purpureus after 24 hr by disk diffusion method; format: functional
[25] = Antioxidant activity assessed as reduction of ferric ion after 30 min by spectrophotometric analysis; format: functional
[26] = system: Mycobacterium tuberculosis; test: Growth inhibition of Mycobacterium tuberculosis H37Rv at 10 ug/ml after 7 days by resazurin microplate assay; format: functional, organism-based
[27] = system: Mycobacterium tuberculosis; test: Growth inhibition of Mycobacterium tuberculosis H37Rv at 1 ug/ml after 7 days by resazurin microplate assay; format: functional, organism-based
[28] = system: Mycobacterium tuberculosis; test: Growth inhibition of Mycobacterium tuberculosis H37Rv at 100 ug/ml after 7 days by resazurin microplate assay; format: functional, organism-based
[29] = system: Radical scavenging activity; test: Antioxidant activity assessed as DPPH radical scavenging activity after 30 min by spectrophotometric analysis; format: functional

Row | Compound | diameter of the inhibition zone (DIZ) [1] | MIC [2] | MIC [3] | diameter of the inhibition zone (DIZ) [4] | MIC [5] | MIC [6] | diameter of the inhibition zone (DIZ) [7] | MIC [8] | diameter of the inhibition zone (DIZ) [9] | diameter of the inhibition zone (DIZ) [10] | MIC [12] | diameter of the inhibition zone (DIZ) [13] | MIC [14] | MIC [15] | MIC [16] | diameter of the inhibition zone (DIZ) [17] | MIC [18] | MIC [20] | diameter of the inhibition zone (DIZ) [21] | diameter of the inhibition zone (DIZ) [22] | further results
1 | COc1cc(C2C(Cl)C(=O)N2NC(=O)NCC(=O)N2c3ccccc3Sc3ccccc32)ccc1O (stereo not drawn) | 8 mm | 250 µg/mL (≈ 476 µM) | 125 µg/mL (≈ 238 µM) | 6 mm | 125 µg/mL (≈ 238 µM) | 250 µg/mL (≈ 476 µM) | 10 mm | 250 µg/mL (≈ 476 µM) | 5 mm | 10 mm | 250 µg/mL (≈ 476 µM) | 4 mm | 125 µg/mL (≈ 238 µM) | 125 µg/mL (≈ 238 µM) | 250 µg/mL (≈ 476 µM) | 5 mm | 125 µg/mL (≈ 238 µM) | 250 µg/mL (≈ 476 µM) | 7 mm | 10 mm | diameter of the inhibition zone (DIZ) [11]: 10 mm; diameter of the inhibition zone (DIZ) [19]: 10 mm; MIC [23]: 250 µg/mL (≈ 476 µM); diameter of the inhibition zone (DIZ) [24]: 7 mm
2 | FERROUS SULFATE | – | – | – | – | – | – | – | – | – | – | – | – | – | – | – | – | – | – | – | – | Activity [25]: Active
3 | O=C(O)c1cn(C2CC2)c2cc(N3CCNCC3)c(F)cc2c1=O [CIPROFLOXACIN] | 16 mm | – | 62.5 µg/mL (≈ 189 µM) | 25 mm | 125 µg/mL (≈ 377 µM) | 62.5 µg/mL (≈ 189 µM) | 18 mm | – | – | 15 mm | 125 µg/mL (≈ 377 µM) | – | 125 µg/mL (≈ 377 µM) | 62.5 µg/mL (≈ 189 µM) | 62.5 µg/mL (≈ 189 µM) | 23 mm | – | 62.5 µg/mL (≈ 189 µM) | 20 mm | 22 mm | –
4 | CO[C@H]1/C=C/O[C@@]2(C)Oc3c(C)c(O)c4c(O)c(c(/C=N/N5CCN(C)CC5)c(O)c4c3C2=O)NC(=O)/C(C)=C\C=C\[C@H](C)[C@H](O)[C@@H](C)[C@@H](O)[C@@H](C)[C@H](OC(C)=O)[C@@H]1C | – | – | – | – | – | – | – | – | – | – | – | – | – | – | – | – | – | – | – | – | growth inhibition (GI) [26]: Active; growth inhibition (GI) [27]: Active
5 | O=C(NCC(=O)N1c2ccccc2Sc2ccccc21)NN1C(=O)C(Cl)C1c1cccc(Cl)c1 (stereo not drawn) | 5 mm | 250 µg/mL (≈ 487 µM) | 500 µg/mL (≈ 974 µM) | 11 mm | 125 µg/mL (≈ 243 µM) | 125 µg/mL (≈ 243 µM) | 10 mm | 250 µg/mL (≈ 487 µM) | 7 mm | 8 mm | 250 µg/mL (≈ 487 µM) | 6 mm | 250 µg/mL (≈ 487 µM) | 125 µg/mL (≈ 243 µM) | 250 µg/mL (≈ 487 µM) | 11 mm | 62.5 µg/mL (≈ 122 µM) | 125 µg/mL (≈ 243 µM) | 7 mm | 10 mm | growth inhibition (GI) [28]: Active; growth inhibition (GI) [26]: Active; diameter of the inhibition zone (DIZ) [11]: 5 mm; growth inhibition (GI) [27]: inactive; diameter of the inhibition zone (DIZ) [19]: 12 mm; MIC [23]: 250 µg/mL (≈ 487 µM); diameter of the inhibition zone (DIZ) [24]: 7 mm
6 | O=C(NCC(=O)N1c2ccccc2Sc2ccccc21)NN1C(=O)C(Cl)C1c1ccccc1Cl (stereo not drawn) | 7 mm | 125 µg/mL (≈ 243 µM) | 250 µg/mL (≈ 487 µM) | 7 mm | 125 µg/mL (≈ 243 µM) | 250 µg/mL (≈ 487 µM) | 12 mm | 125 µg/mL (≈ 243 µM) | 8 mm | 6 mm | 250 µg/mL (≈ 487 µM) | 10 mm | 250 µg/mL (≈ 487 µM) | 250 µg/mL (≈ 487 µM) | 500 µg/mL (≈ 974 µM) | 5 mm | 62.5 µg/mL (≈ 122 µM) | 250 µg/mL (≈ 487 µM) | 4 mm | 7 mm | diameter of the inhibition zone (DIZ) [11]: 8 mm; Activity [25]: Active; EC50 [29]: 57 µg/mL (≈ 111 µM); diameter of the inhibition zone (DIZ) [19]: 12 mm; MIC [23]: 125 µg/mL (≈ 243 µM); diameter of the inhibition zone (DIZ) [24]: 10 mm
7 | O=C1O[C@H]([C@@H](O)CO)C(O)=C1O [ASCORBIC ACID] | – | – | – | – | – | – | – | – | – | – | – | – | – | – | – | – | – | – | – | – | EC50 [29]: 40 µg/mL (≈ 227 µM)
8 | COc1ccc(C2C(Cl)C(=O)N2NC(=O)NCC(=O)N2c3ccccc3Sc3ccccc32)cc1 (stereo not drawn) | 7 mm | 250 µg/mL (≈ 491 µM) | 125 µg/mL (≈ 246 µM) | 7 mm | 125 µg/mL (≈ 246 µM) | 250 µg/mL (≈ 491 µM) | 8 mm | 125 µg/mL (≈ 246 µM) | 10 mm | 9 mm | 250 µg/mL (≈ 491 µM) | 6 mm | 125 µg/mL (≈ 246 µM) | 125 µg/mL (≈ 246 µM) | 250 µg/mL (≈ 491 µM) | 10 mm | 250 µg/mL (≈ 491 µM) | 62.5 µg/mL (≈ 123 µM) | 5 mm | 7 mm | diameter of the inhibition zone (DIZ) [11]: 8 mm; diameter of the inhibition zone (DIZ) [19]: 7 mm; MIC [23]: 250 µg/mL (≈ 491 µM); diameter of the inhibition zone (DIZ) [24]: 6 mm
9 | Clc1ccccc1C(c1ccccc1)(c1ccccc1)n1ccnc1 [CLOTRIMAZOLE] | – | 62.5 µg/mL (≈ 181 µM) | – | – | – | – | – | 125 µg/mL (≈ 362 µM) | 4 mm | – | – | 22 mm | – | – | – | – | 62.5 µg/mL (≈ 181 µM) | – | – | – | MIC [23]: 62.5 µg/mL (≈ 181 µM); diameter of the inhibition zone (DIZ) [24]: 20 mm
10 | O=C(NCC(=O)N1c2ccccc2Sc2ccccc21)NN1C(=O)C(Cl)C1c1cccc(F)c1 (stereo not drawn) | 7 mm | 125 µg/mL (≈ 252 µM) | 250 µg/mL (≈ 503 µM) | 11 mm | 125 µg/mL (≈ 252 µM) | 62.5 µg/mL (≈ 126 µM) | 10 mm | 250 µg/mL (≈ 503 µM) | 7 mm | 9 mm | 250 µg/mL (≈ 503 µM) | 7 mm | 125 µg/mL (≈ 252 µM) | 125 µg/mL (≈ 252 µM) | 250 µg/mL (≈ 503 µM) | 11 mm | 125 µg/mL (≈ 252 µM) | 125 µg/mL (≈ 252 µM) | 7 mm | 11 mm | diameter of the inhibition zone (DIZ) [11]: 6 mm; Activity [25]: Active; EC50 [29]: 47 µg/mL (≈ 94.6 µM); diameter of the inhibition zone (DIZ) [19]: 11 mm; MIC [23]: 125 µg/mL (≈ 252 µM); diameter of the inhibition zone (DIZ) [24]: 10 mm

From ChEMBL document CHEMBL3044552, “Synthesis and biological evaluation of 1-(3-chloro-2-oxo-4-phenylazetidin-1-yl)-3-(2-oxo-2-(10H-phenothiazin-10-yl)ethyl)urea derivatives” (Med Chem Res, 2013)
